The subject of this experiment is HeLa cells. In words: Evaluation of cell membrane permeability by flow cytometry (FAM fluorescence) in HeLa cells. The note with it: 20-hour incubation; for MFI (mean fluorescent intensity): 10 μM in culture medium, 0.5% DMSO, FL2 fluorescence detector; for introduction of the fluorescent dye (FAM) into the cytoplasm, from the histogram shift (FIG. 1), compared with Example 3 (FAM only): histogram of fluorescent intensity vs cell count. Type of experiment: cell-based, human. As for the experimental part:
The cell membrane permeability of sample 1 and sample 2 was evaluated using HeLa cells (an established cell line derived from human cervical cancer cells) as the eukaryotic cells.
HeLa cells were cultured on DMEM (Dulbecco's modified Eagle's medium (Cat. No. 043-30085, from FUJIFILM Wako Pure Chemical Corporation)) containing 10% FBS (fetal bovine serum), which is a general culture medium.
The HeLa cells attached to the culture plate were washed with PBS, a 0.25% trypsin/EDTA solution was then added, and incubation was carried out for 3 minutes at 37° C. After this incubation, the aforementioned DMEM containing 10% FBS was added and the trypsin was inactivated, and the cells were then sedimented by carrying out centrifugal separation for 5 minutes at 150×g. The supernatant produced by the centrifugal separation was removed, and the aforementioned DMEM containing 10% FBS was added to the sediment (cell pellet) to prepare a cell suspension containing approximately 1×10^5 cells/mL. The cells were seeded (approximately 2×10^5 cells/well) by the addition of 2 mL of this cell suspension to the wells of a commercial 6-well plate ((Iwaki microplate commercially available from AGC techno glass Co., Ltd). The cells were attached to the well bottom by culture for 3 hours at 37° C. under the condition of 5% CO2.
The 2 mM sample solution 1 was then diluted with the aforementioned DMEM containing 10% FBS to prepare a sample solution 1 in which the sample 1 concentration was 20 μM. After the aforementioned 3-hour culture, 1 mL of the culture supernatant was removed from the wells, followed by the addition to the wells of 1 mL of the 20 μM sample solution 1 (i.e., the concentration of sample 1 in the culture medium in the wells was brought to 10 μM and the DMSO concentration was brought to 0.5%). The cells were incubated for 20 hours at 37° C. under the condition of 5% CO2. After this 20-hour incubation, the culture supernatant was removed from the wells and the cells in the wells were washed twice with 1 mL PBS. 200 μL of 0.25% trypsin/EDTA was then added to the wells and incubation was carried out for 3 minutes at 37° C. After this incubation, the trypsin was inactivated by the addition of 400 μL of the aforementioned DMEM containing 10% FBS to the wells, and the cells were subsequently recovered by transferring the cell suspensions in the wells to a tube. The wells were then washed by the further addition of 600 μL PBS to the wells. The cells that had remained in the wells were recovered to the tube by transferring the PBS in the wells to the tube. Centrifugal separation was run on this tube for 5 minutes using conditions of 4° C. and 210×g. After the centrifugal separation, the supernatant was removed, the sediment (cell pellet) was suspended (washed) with 1 mL of PBS, and centrifugal separation was carried out using the same conditions as before. After this procedure has been repeated twice, the supernatant was removed to obtain cells (cell pellet) that had been cultured on a sample 1-containing culture medium.
The cell permeability of sample 1 was analyzed using the resulting cells (cell pellet) and a flow cytometer. An On-Chip Flow Cytometer (On-chip Biotechnologies Co., Ltd.) was used for the flow cytometer.
For this analysis, the cell pellet obtained as described above was suspended in 50 μL PBS. To this suspension was added 50 μL of 2×Sample Buffer for use with the indicated flow cytometer to prepare a cell suspension for submission to analysis.
Gating was performed using this flow cytometer based on forward scatter (FSC) and side scatter (SSC); the gating was set for the cell population that was the target of the analysis; and the fluorescent intensity was measured for the cell population within this gating. The analysis was performed so this cell population reached approximately 10,000. […]
Background: Flow cytometry measures light scatter and fluorescence of single cells or particles in a stream.

FAM = FAM fluorescent dye

Take 5(6)-carboxyfluorescein [Example 3]: the “MFI (mean fluorescent intensity)” value stood at 5.9.

Consider “FAM-KKRTLRKNDRKKR-CONH2 ({FAM}-KKRTLRKNDRKKR-NH2) [Example 2]”, for which the “MFI (mean fluorescent intensity)” value stood at 10.5. The “introduction of the fluorescent dye (FAM) into the cytoplasm, from the histogram shift (FIG. 1), compared with Example 3 (FAM only)” value (10 μM) is on record as “more efficiently introduced”.

For the substance “FAM-VVRSLVKVVRSLVK-CONH2 ({FAM}-VVRSLVKVVRSLVK-NH2) [Example 1]”, the “MFI (mean fluorescent intensity)” value stood at 690. Moreover, the “introduction of the fluorescent dye (FAM) into the cytoplasm, from the histogram shift (FIG. 1), compared with Example 3 (FAM only)” value (10 μM) is “more efficiently introduced”. The “efficiency (cell membrane permeability) compared using the MFI, Example 1 versus Example 2” value (10 μM, ratio of MFI values of Table 3) is on record as “approximately 65.7 times”.

(Values after US11814448B2, “Carrier peptide fragment and use thereof” (TOAGOSEI CO., LTD., priority 2020, dated 2023).)
